Measurements taken from publication PMC3328449, “Inhibition of Diacylglycerol–Sensitive TRPC Channels by Synthetic and Natural Steroids” (PLoS ONE, 2012).
“And” between values parts separate entries of the source, which are not always exact repeats. Identical values can stand only once.

Target: T1, hTRPC3 (Homo sapiens, UniProt Q13507)
T1 construct: expressed in transfected cells
T1 sequence (Q13507 1-848 isoform Q13507-3): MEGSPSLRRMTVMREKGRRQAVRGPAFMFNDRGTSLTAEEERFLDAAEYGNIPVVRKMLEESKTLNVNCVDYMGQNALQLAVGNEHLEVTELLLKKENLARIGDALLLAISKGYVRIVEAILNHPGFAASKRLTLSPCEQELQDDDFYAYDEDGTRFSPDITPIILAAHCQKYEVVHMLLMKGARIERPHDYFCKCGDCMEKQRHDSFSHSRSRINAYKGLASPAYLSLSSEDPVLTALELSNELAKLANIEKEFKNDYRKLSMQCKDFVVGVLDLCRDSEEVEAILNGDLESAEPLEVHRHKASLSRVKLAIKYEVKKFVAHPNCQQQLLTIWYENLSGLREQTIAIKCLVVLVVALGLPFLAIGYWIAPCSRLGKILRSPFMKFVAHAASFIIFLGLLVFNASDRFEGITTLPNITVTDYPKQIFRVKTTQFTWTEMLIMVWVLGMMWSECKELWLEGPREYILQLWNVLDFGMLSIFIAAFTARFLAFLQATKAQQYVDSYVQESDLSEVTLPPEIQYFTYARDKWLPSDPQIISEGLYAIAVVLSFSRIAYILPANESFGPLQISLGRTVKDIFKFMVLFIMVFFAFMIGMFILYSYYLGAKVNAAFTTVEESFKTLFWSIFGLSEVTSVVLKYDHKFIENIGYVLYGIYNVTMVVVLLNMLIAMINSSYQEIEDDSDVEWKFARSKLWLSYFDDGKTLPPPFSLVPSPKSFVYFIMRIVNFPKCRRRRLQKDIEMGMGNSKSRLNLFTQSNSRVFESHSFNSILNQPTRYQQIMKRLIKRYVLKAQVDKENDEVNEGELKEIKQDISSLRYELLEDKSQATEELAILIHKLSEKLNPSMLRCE
Assay: OAG-induced Ca2+ entry, fluo-4 fluorometric imaging plate reader, TRPC3 CHO cells
Assay type: cell-based
Settings: for IC50: TRPC3 CHO cells, fluo-4, area under the curve, 10 min pre-incubation, read-out: IC50, inhibition of OAG-induced Ca2+ entry via TRPC3; for Hill slope n, inhibition of TRPC3-mediated Ca2+ entry: fit to Hill model
Procedure: hTRPC3 (GenBank accession number NM_003305) was stably expressed in chinese hamster ovary (CHO) cells using a proprietary high expression vector (Steinbeis -Transferzentrum für Angewandte Biologische Chemie, Mannheim, Germany). Cells grown to an almost confluent monolayer on black poly-D-lysine coated 96-well plates (Greiner, Frickenhausen, Germany) were washed with standard extracellular solution (140 mM NaCl, 1 mM MgCl2, 5.4 mM KCl, 2 mM CaCl2, 10 mM HEPES, 10 mM glucose, pH 7.35) and stained (30 min, room temperature) with dye solution (2 μM fluo-4 AM, 0.02% pluronic F127, 0.1% bovine serum albumin in standard extracellular solution). Cells were washed and either incubated with standard extracellular solution only or with different concentrations of test compounds for 10 min. Fluo-4 fluorescence was excited at 488 nm with an argon laser and measured using a fluorometric imaging plate reader (Molecular Devices, Sunnyvale, USA). All fluorometric measurements were performed at room temperature. […] Baseline fluorescence in non-OAG-stimulated cells and OAG-stimulated Ca^2+ influx into control cells not treated with inhibitors were defined as 0% and 100% influx, respectively. For statistical analysis, analysis of variance was performed with Origin 6.0 software (Microcal Software Inc., Northampton, USA). […] Averaged data is expressed as means ± SEM.

Effect on TRPC3-mediated Ca2+ entry (30 µM pre-incubation, OAG-induced) | IC50 | Hill slope n, inhibition of TRPC3-mediated Ca2+ entry | SMILES
significantly reduced | 3 to 5 µM and 3 µM | 1.67 | C#C[C@]1(OC(C)=O)CC[C@H]2[C@@H]3CCC4=CC(=NO)CC[C@@H]4[C@H]3CC[C@@]21CC (mixture of isomers) [norgestimate]
– | 12.4 µM | 3.6 | CC(=O)[C@H]1CC[C@H]2[C@@H]3CCC4=CC(=O)CC[C@]4(C)[C@H]3CC[C@]12C [progesterone]
